Where “and” joins values, the source holds several entries; their conditions need not be identical. Identical values can stand only once.
Organism: Rattus norvegicus
Assay: Open TG-GATES - Regimen: Single
Format: toxicity, organism-based, Sprague-Dawley
Design: regimen Single, gender Male, age 6 weeks
Conditions: in vivo, po, 0 mg/kg, route gavage, dose level Control; for APTT / Bas / Eos / Fbg / Hb / Ht / Lym / MCH / MCHC / MCV / Mono / Neu / PT / Plat / RBC / Ret / WBC: tissue Blood; for KIDNEY_L / KIDNEY_R / KIDNEY_TOTAL: tissue Kidney; for LIVER: tissue Liver

O=C1CN(/N=C/c2ccc([N+](=O)[O-])o2)C(=O)N1 [NITROFURANTOIN]
TERMINAL_BW (3 h): 220.5 g and 212 g | APTT (3 h): 20.2 s and 16.2 s | Bas (3 h): 0% | Eos (3 h): 0.8% and 1.4% | Fbg (3 h): 213.2 mg/dL and 223.8 mg/dL | Hb (3 h): 13.3 g/dL and 12.9 g/dL | Ht (3 h): 37.7% and 38.8% | Lym (3 h): 79.2% and 74% | MCH (3 h): 21.5 pg | MCHC (3 h): 35.3% and 33.1% | MCV (3 h): 60.7 fL and 64.8 fL | Mono (3 h): 2% and 5% | Neu (3 h): 16.4% and 20.2% | PT (3 h): 12.9 s and 12 s | Plat (3 h): 112.1 x10_4/uL and 122.4 x10_4/uL | RBC (3 h): 620.6 x10_4/ul and 599.8 x10_4/ul | Ret (3 h): 7.4% and 6.9% | WBC (3 h): 98.8 x10_2/uL and 73.8 x10_2/uL | KIDNEY_L (3 h): 1 g and 0.9 g | KIDNEY_R (3 h): 1 g and 0.9 g | KIDNEY_TOTAL (3 h): 2 g and 1.9 g | LIVER (3 h): 10.4 g and 9.4 g | A/G (3 h, tissue Plasma): 1.7 and 2.2 | ALP (3 h, tissue Plasma): 989 IU/L and 1656.4 IU/L | ALT (3 h, tissue Plasma): 38.8 IU/L and 39.2 IU/L | AST (3 h, tissue Plasma): 67.6 IU/L and 66.6 IU/L | BUN (3 h, tissue Plasma): 11.6 mg/dL and 13 mg/dL | CRE (3 h, tissue Plasma): 0.4 mg/dL and 0.3 mg/dL | Ca (3 h, tissue Plasma): 10.8 mg/dL and 11.1 mg/dL | Cl (3 h, tissue Plasma): 101.6 meq/L and 104 meq/L | GLC (3 h, tissue Plasma): 190.2 mg/dL and 202 mg/dL | IP (3 h, tissue Plasma): 8.4 mg/dL and 9.1 mg/dL | K (3 h, tissue Plasma): 4 meq/L and 4.5 meq/L | LDH (3 h, tissue Plasma): 180.2 IU/L and 74.6 IU/L | Na (3 h, tissue Plasma): 140.6 meq/L and 139.2 meq/L | PL (3 h, tissue Plasma): 135.4 mg/dL and 141.2 mg/dL | RALB (3 h, tissue Plasma): 3.5 g/dL and 3.8 g/dL | TC (3 h, tissue Plasma): 73.4 mg/dL and 84.8 mg/dL | TG (3 h, tissue Plasma): 80.2 mg/dL and 53 mg/dL | TP (3 h, tissue Plasma): 5.6 g/dL and 5.5 g/dL | gamma-GTP (3 h, tissue Plasma): 1 IU/L | TERMINAL_BW (6 h): 219 g and 212.6 g | APTT (6 h): 19.5 s and 16.2 s | Bas (6 h): 0% | Eos (6 h): 1% | Fbg (6 h): 221.8 mg/dL and 224 mg/dL | Hb (6 h): 12.9 g/dL and 12.6 g/dL | Ht (6 h): 36.6% and 38.1% | Lym (6 h): 75.4% and 75.2% | MCH (6 h): 21.8 pg and 21 pg | MCHC (6 h): 35.4% and 33.1% | MCV (6 h): 61.6 fL and 63.7 fL | Mono (6 h): 3.4% and 6.6% | Neu (6 h): 18.8% and 17.2% | PT (6 h): 12.7 s and 12 s | Plat (6 h): 108.3 x10_4/uL and 124 x10_4/uL | RBC (6 h): 594.4 x10_4/ul and 598.8 x10_4/ul | Ret (6 h): 7.9% and 7.7% | WBC (6 h): 107.6 x10_2/uL and 78.5 x10_2/uL | KIDNEY_L (6 h): 1 g and 0.9 g | KIDNEY_R (6 h): 1 g | KIDNEY_TOTAL (6 h): 2 g and 1.9 g | LIVER (6 h): 9.8 g | A/G (6 h, tissue Plasma): 1.5 and 2.3 | ALP (6 h, tissue Plasma): 798.6 IU/L and 1341.4 IU/L | ALT (6 h, tissue Plasma): 34.4 IU/L and 35.2 IU/L | AST (6 h, tissue Plasma): 61 IU/L and 65.8 IU/L | BUN (6 h, tissue Plasma): 12 mg/dL and 14.8 mg/dL | CRE (6 h, tissue Plasma): 0.4 mg/dL | Ca (6 h, tissue Plasma): 10.8 mg/dL and 10.9 mg/dL | Cl (6 h, tissue Plasma): 102.4 meq/L and 103.8 meq/L | GLC (6 h, tissue Plasma): 185.8 mg/dL and 193.2 mg/dL | IP (6 h, tissue Plasma): 8.6 mg/dL and 7.9 mg/dL | K (6 h, tissue Plasma): 4.2 meq/L and 4.6 meq/L | LDH (6 h, tissue Plasma): 177 IU/L and 74.4 IU/L | Na (6 h, tissue Plasma): 140.4 meq/L and 137.2 meq/L | PL (6 h, tissue Plasma): 137.2 mg/dL and 147 mg/dL | RALB (6 h, tissue Plasma): 3.2 g/dL and 3.8 g/dL | TC (6 h, tissue Plasma): 80 mg/dL and 86 mg/dL | TG (6 h, tissue Plasma): 54 mg/dL and 118.6 mg/dL | TP (6 h, tissue Plasma): 5.4 g/dL | gamma-GTP (6 h, tissue Plasma): 1 IU/L and 0.4 IU/L | TERMINAL_BW (9 h): 214.5 g and 212 g | APTT (9 h): 19.4 s and 16 s | Bas (9 h): 0% | Eos (9 h): 1% | Fbg (9 h): 216.6 mg/dL and 235.2 mg/dL | Hb (9 h): 13.5 g/dL and 12.9 g/dL | Ht (9 h): 38.4% and 39.4% | Lym (9 h): 77.2% and 72% | MCH (9 h): 21.4 pg and 21.3 pg | MCHC (9 h): 35.3% and 32.7% | MCV (9 h): 60.8 fL and 64.9 fL | Mono (9 h): 2.8% and 8.8% | Neu (9 h): 18.2% and 18.4% | PT (9 h): 12.7 s and 11.8 s | Plat (9 h): 113.7 x10_4/uL and 107.9 x10_4/uL | RBC (9 h): 633.4 x10_4/ul and 606 x10_4/ul | Ret (9 h): 7.1% | WBC (9 h): 86.1 x10_2/uL and 82.1 x10_2/uL | KIDNEY_L (9 h): 1 g and 0.9 g | KIDNEY_R (9 h): 1 g and 0.9 g | KIDNEY_TOTAL (9 h): 2 g and 1.8 g | LIVER (9 h): 9.3 g and 10.4 g | A/G (9 h, tissue Plasma): 1.6 and 2.2 | ALP (9 h, tissue Plasma): 901.6 IU/L and 1778 IU/L | ALT (9 h, tissue Plasma): 34.4 IU/L and 40.2 IU/L | AST (9 h, tissue Plasma): 62.2 IU/L and 71 IU/L | BUN (9 h, tissue Plasma): 11.6 mg/dL and 14.6 mg/dL | CRE (9 h, tissue Plasma): 0.4 mg/dL and 0.3 mg/dL | Ca (9 h, tissue Plasma): 10.6 mg/dL and 11.3 mg/dL | Cl (9 h, tissue Plasma): 102.2 meq/L and 104.4 meq/L | GLC (9 h, tissue Plasma): 194 mg/dL and 183.2 mg/dL | IP (9 h, tissue Plasma): 9.3 mg/dL and 7.7 mg/dL | K (9 h, tissue Plasma): 4 meq/L and 4.9 meq/L | LDH (9 h, tissue Plasma): 211.8 IU/L and 71.2 IU/L | Na (9 h, tissue Plasma): 140.2 meq/L and 137.2 meq/L | PL (9 h, tissue Plasma): 143.8 mg/dL and 168 mg/dL | RALB (9 h, tissue Plasma): 3.3 g/dL and 3.9 g/dL | TBIL (9 h, tissue Plasma): 0.1 mg/dL and 0.038 mg/dL | TC (9 h, tissue Plasma): 78.8 mg/dL and 100.6 mg/dL | TG (9 h, tissue Plasma): 77.2 mg/dL and 109.6 mg/dL | TP (9 h, tissue Plasma): 5.3 g/dL and 5.6 g/dL | gamma-GTP (9 h, tissue Plasma): 0.6 IU/L and 1 IU/L | TERMINAL_BW (24 h): 232.8 g and 218.4 g | APTT (24 h): 19 s and 15.6 s | Bas (24 h): 0% | Eos (24 h): 1% | Fbg (24 h): 219.8 mg/dL and 239.4 mg/dL | Hb (24 h): 13.6 g/dL and 13.4 g/dL | Ht (24 h): 39.2% and 40.4% | Lym (24 h): 75.2% and 73% | MCH (24 h): 22 pg and 21.7 pg | MCHC (24 h): 34.9% and 33.3% | MCV (24 h): 63.2 fL and 65.2 fL | Mono (24 h): 3% and 10.2% | Neu (24 h): 19.6% and 15.6% | PT (24 h): 12.5 s and 11.7 s | Plat (24 h): 119.5 x10_4/uL and 120.8 x10_4/uL | RBC (24 h): 620.4 x10_4/ul and 619 x10_4/ul | Ret (24 h): 7% and 6.5% | WBC (24 h): 95.9 x10_2/uL and 73.9 x10_2/uL | KIDNEY_L (24 h): 1 g | KIDNEY_R (24 h): 1.1 g and 1 g | KIDNEY_TOTAL (24 h): 2.1 g and 2 g | LIVER (24 h): 11.1 g and 10.1 g | A/G (24 h, tissue Plasma): 1.4 and 2.4 | ALP (24 h, tissue Plasma): 1022.4 IU/L and 1561.4 IU/L
